The values below come from patent publication US20220388964A1 (HiberCell, Inc., priority 2019, published 2022).

For orientation: IC50 means the midpoint of a concentration-inhibition curve. Read a low IC50 as higher potency.

Sequence of GCN2 (Q9P2K8 whole entry): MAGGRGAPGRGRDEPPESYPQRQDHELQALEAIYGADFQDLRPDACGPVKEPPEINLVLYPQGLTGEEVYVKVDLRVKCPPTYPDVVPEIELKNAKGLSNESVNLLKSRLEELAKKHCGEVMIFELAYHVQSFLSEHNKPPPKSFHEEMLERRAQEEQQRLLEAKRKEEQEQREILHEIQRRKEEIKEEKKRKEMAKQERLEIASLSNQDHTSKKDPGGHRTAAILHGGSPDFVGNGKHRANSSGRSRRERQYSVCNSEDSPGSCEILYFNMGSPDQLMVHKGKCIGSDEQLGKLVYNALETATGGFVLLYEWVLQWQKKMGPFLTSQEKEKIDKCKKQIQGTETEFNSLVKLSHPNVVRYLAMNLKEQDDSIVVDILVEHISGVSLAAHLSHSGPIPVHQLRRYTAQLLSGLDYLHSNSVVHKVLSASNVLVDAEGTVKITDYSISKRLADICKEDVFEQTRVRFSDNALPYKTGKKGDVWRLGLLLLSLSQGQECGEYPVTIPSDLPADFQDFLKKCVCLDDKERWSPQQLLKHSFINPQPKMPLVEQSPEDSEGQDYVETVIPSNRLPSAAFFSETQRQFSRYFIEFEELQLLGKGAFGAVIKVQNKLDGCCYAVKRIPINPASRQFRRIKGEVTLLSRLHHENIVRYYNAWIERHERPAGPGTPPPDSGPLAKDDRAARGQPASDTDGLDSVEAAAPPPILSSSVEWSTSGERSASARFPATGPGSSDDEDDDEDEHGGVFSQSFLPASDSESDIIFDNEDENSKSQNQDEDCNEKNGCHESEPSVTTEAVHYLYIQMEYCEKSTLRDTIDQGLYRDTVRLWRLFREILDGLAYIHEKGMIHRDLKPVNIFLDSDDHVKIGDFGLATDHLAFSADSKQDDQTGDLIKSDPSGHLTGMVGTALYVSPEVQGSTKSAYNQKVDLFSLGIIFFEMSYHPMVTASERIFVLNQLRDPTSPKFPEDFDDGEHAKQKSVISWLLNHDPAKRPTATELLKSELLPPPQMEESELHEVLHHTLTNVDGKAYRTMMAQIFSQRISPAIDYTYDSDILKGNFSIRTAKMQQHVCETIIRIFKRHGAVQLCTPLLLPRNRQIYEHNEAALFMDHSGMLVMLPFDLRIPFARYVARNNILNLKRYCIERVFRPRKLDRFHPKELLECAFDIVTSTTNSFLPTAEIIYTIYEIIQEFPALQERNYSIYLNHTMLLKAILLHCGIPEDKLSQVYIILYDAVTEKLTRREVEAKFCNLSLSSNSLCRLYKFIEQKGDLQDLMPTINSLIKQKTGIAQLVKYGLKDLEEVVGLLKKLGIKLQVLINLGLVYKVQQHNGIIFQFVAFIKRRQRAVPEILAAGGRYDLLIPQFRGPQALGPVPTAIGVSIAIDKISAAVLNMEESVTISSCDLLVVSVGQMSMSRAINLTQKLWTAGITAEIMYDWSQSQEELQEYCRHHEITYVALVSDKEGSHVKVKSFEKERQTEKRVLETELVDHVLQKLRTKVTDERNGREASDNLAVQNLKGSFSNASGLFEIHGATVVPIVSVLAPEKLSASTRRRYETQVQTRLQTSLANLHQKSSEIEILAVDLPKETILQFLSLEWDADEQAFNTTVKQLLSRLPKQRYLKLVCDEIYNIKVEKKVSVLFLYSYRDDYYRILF

One assay addresses GCN2 (Homo sapiens, UniProt Q9P2K8). Nature of the assay: TR-FRET biochemical assay for inhibition of GCN2 (Example 106, for Example 1-4BB). Conditions: Table 8. A general note: Time-resolved FRET reads energy transfer from a long-lived donor to a nearby acceptor.
In turn, `N#Cc1ccccc1S(=O)(=O)Nc1ccc(F)c(-c2ccc3c(-c4ncc[nH]4)n[nH]c3c2F)c1F` [Example 2BK, 2-cyano-N-(2,4-difluoro-3-(7-fluoro-3-(1H-imidazol-2-yl)-1H-indazol-6-yl)phenyl)-benzenesulfonamide] had an IC50 of less than 500 nM.
On the same count and under the same terms, to `COc1ncc(Cl)cc1S(=O)(=O)Nc1ccc(F)c(-c2ccc3c(C(=O)NCCCO)n[nH]c3c2F)c1F` [Example 2CI, 6-(3-((5-chloro-2-methoxy-pyridine)-3-sulfonamido)-2,6-difluorophenyl)-7-fluoro-N-(3-hydroxypropyl)-1H-indazole-3-carboxamide] belongs less than 500 nM.
For the compound `O=S(=O)(Nc1ccc(F)c(-c2ccc3c(-c4ncc[nH]4)n[nH]c3c2)c1F)c1cc(Cl)ccc1Cl` [Example 2AV, N-(3-(3-(1H-imidazol-2-yl)-1H-indazol-6-yl)-2,4-difluorophenyl)-2,5-dichlorobenzenesulfonamide], the IC50 is less than 500 nM.
In turn, `COc1ccccc1S(=O)(=O)Nc1ccc(F)c(-c2ccc3c(-c4ncc[nH]4)n[nH]c3c2F)c1F` [Example 2BF, N-(2,4-difluoro-3-(7-fIuoro-3-(1H-imidazol-2-yl)-1H-indazol-6-yl)phenyl)-2-methoxybenzenesulfonamide] yielded an IC50 of 500 to 2500 nM.
Same read-out and setting: to `O=S(=O)(Nc1ccc(F)c(-c2ccc3c(-c4ncc[nH]4)n[nH]c3c2F)c1F)c1cccnc1CO` [Example 2Q, N-(2,4-difluoro-3-(7-fluoro-3-(1H-imidazol-2-yl)-1H-indazol-6-yl)phenyl)-2-(hydroxyl-methyl)pyridine-3-sulfonamide] belongs 500 to 2500 nM.
Compound `COc1cccc(S(=O)(=O)Nc2ccc(F)c(-c3ccc4c(-c5ncc[nH]5)n[nH]c4c3F)c2F)n1` [Example 2AM, N-(2,4-difluoro-3-(7-fluoro-3-(1H-imidazol-2-yl)-1H-indazol-6-yl)phenyl)-6-methoxypyridine-2-sulfonamide] registered an IC50 of 500 to 2500 nM.
Same read-out and setting: to `COc1ncc(Cl)cc1S(=O)(=O)Nc1cc(C)nc(-c2ccc3c(-c4ncc[nH]4)n[nH]c3c2F)c1F` [Example 2AO, 5-chloro-N-(3-fluoro-2-(7-fluoro-3-(1H-imidazol-2-yl)-1H-indazol-6-yl)-6-methyl-pyridin-4-yl)-2-methoxy-pyridine-3-sulfonamide] belongs 2500 to 10000 nM; to `Cc1nn(C)c(C)c1S(=O)(=O)Nc1ccc(F)c(-c2ccc3c(-c4ncc[nH]4)n[nH]c3c2F)c1F` [Example 2E, N-(2,4-difluoro-3-(7-fluoro-3-(1H-imidazol-2-yl)-1H-indazol-6-yl)phenyl)-1,3,5-trimethyl-1H-pyrazole-4-sulfonamide], 500 to 2500 nM; to `O=S(=O)(Nc1ccc(F)c(-c2ccc3c(-c4ncc[nH]4)n[nH]c3c2F)c1F)c1cccc(Cl)c1` [Example 2CN, 3-chloro-N-(2,4-difluoro-3-(7-fluoro-3-(1H-imidazol-2-yl)-1H-indazol-6-yl)phenyl)ben-zenesulfonamide], 500 to 2500 nM.
In the case of `COc1ccc(Cl)c(S(=O)(=O)Nc2ccc(F)c(-c3ccc4c(-c5ncc[nH]5)n[nH]c4c3F)c2F)c1` [Example 2BA, 2-chloro-N-(2,4-difluoro-3-(7-fluoro-3-(1H-imidazol-2-yl)-1H-indazol-6-yl)phenyl)-5-methoxybenzene-sulfonamide], the IC50 was less than 500 nM.
The same measure, in the same setting: to `COc1ncc(Cl)cc1S(=O)(=O)Nc1ccc(F)c(-c2ccc3c(C(=O)NCCCN(C)C)n[nH]c3c2F)c1F` [Example 2CG, 6-(3-((5-chloro-2-methoxy-pyridine)-3-sulfonamido)-2,6-difluorophenyl)-N-(3-(di-methylamino)propyl)-7-fluoro-1H-indazole-3-carboxamide] belongs less than 500 nM.

The assay is the same for the next values; noted with them: Table 9.
Compound `COc1ncc(Cl)cc1S(=O)(=O)Nc1ccc(F)c(-c2ccc3c(C(=O)Nc4cn[nH]n4)n[nH]c3c2F)c1F` [Example 3DF, 6-(3-((5-chloro-2-methoxy-pyridine)-3-sulfonamido)-2,6-difluorophenyl)-7-fluoro-1H-(2H-1,2,3-triazol-4-yl)-1H-indazole-3-carboxamide] yielded an IC50 of 500 to 2500 nM.
Still for that read-out and setting: to `CNC(=O)c1n[nH]c2c(F)c(-c3c(F)ccc(NS(=O)(=O)c4cc(F)cnc4OC)c3F)ccc12` [Example 3S, 6-(2,6-difluoro-3-((5-fluoro-2-methoxypyridine)-3-sulfonamido)phenyl)-7-fluoro-N-methyl-1H-indazole-3-carboxamide] belongs less than 500 nM; to `Cc1c(CO)cc(F)cc1S(=O)(=O)Nc1ccc(F)c(-c2ccc3c(C(=O)NCCCO)n[nH]c3c2F)c1F` [Example 4H], less than 500 nM; to `COc1ncc(Cl)cc1S(=O)(=O)Nc1ccc(F)c(-c2ccc3c(C(=O)Nc4cn[nH]c4)n[nH]c3c2F)c1F` [Example 3CQ, 6-(3-((5-chloro-2-methoxy-pyridine)-3-sulfonamido)-2,6-difluorophenyl)-7-fluoro-N-(1H-pyrazol-4-yl)-1H-indazole-3-carboxamide], less than 500 nM.
`COc1ccc(NS(=O)(=O)c2cc(F)cnc2OC)c(F)c1-c1ccc2c(C(N)=O)n[nH]c2c1F` [Example 3AO, 7-fluoro-6-(2-fluoro-3-((5-fluoro-2-methoxypyridine)-3-sulfonamido)-6-methoxy-phenyl)-1H-indazole-3-carboxamide] had an IC50 of 500 to 2500 nM.
On to `COc1ncc(F)cc1S(=O)(=O)Nc1ccc(F)c(-c2ccc3c(-c4nc(C(O)CO)c[nH]4)n[nH]c3c2F)c1F` (stereo not shown) [Example 21, N-(3-(3-(4-(1,2-Dihydroxyethyl)-1H-imidazol-2-yl)-7-fluoro-1H-indazol-6-yl)-2,4-difluorophenyl)-5-fluoro-2-methoxypyridine-3-sulfonamide], for which the IC50 is less than 500 nM.
For `COc1ncc(Cl)cc1S(=O)(=O)Nc1c(F)ccc(-c2ccc3c(-c4ncc[nH]4)n[nH]c3c2F)c1F` [Example 3A, 5-chloro-N-(2,6-difluoro-3-(7-fluoro-3-(1H-imidazol-2-yl)-1H-indazol-6-yl)phenyl)-2-methoxypyridine-3-sulfonamide], the IC50 was less than 500 nM.
The same measure, in the same setting: to `COc1ncc(F)cc1S(=O)(=O)Nc1ccc(C#N)c(-c2ccc3c(C(=O)NCCCO)n[nH]c3c2F)c1F` [Example 3CA, 6-(6-cyano-2-fluoro-3-((5-fluoro-2-methoxypyridine)-3-sulfonamido)phenyl)-7-fluoro-N-(3-hydroxypropyl)-1H-indazole-3-carboxamide] belongs less than 500 nM.
On the same count and under the same terms, to `COc1ncc(Cl)cc1S(=O)(=O)Nc1ccc(F)c(-c2ccc3c(C(=O)N[C@@H]4CCN(C)C4)n[nH]c3c2F)c1F` [Example 3AD, 6-(3-((5-chloro-2-methoxy-pyridine)-3-sulfonamido)-2,6-difluorophenyl)-7-fluoro-N-((R)-1-methylpyrrolidin-3-yl)-1H-indazole-3-carboxamide] belongs less than 500 nM; to `COc1ncc(F)cc1S(=O)(=O)Nc1ccc(F)c(-c2ccc3c(C(=O)NCC4CCN(C)CC4)n[nH]c3c2F)c1F` [Example 3AK, 6-(2,6-difluoro-3-((5-fluoro-2-methoxypyridine)-3-sulfonamido)phenyl)-7-fluoro-N-((1-methylpiperidin-4-yl)methyl)-1H-indazole-3-carboxamide], less than 500 nM.
In the case of `O=C(Nc1cnn(CCO)c1)c1n[nH]c2c(F)c(-c3c(F)ccc(NS(=O)(=O)c4cc(F)cc(CO)c4Cl)c3F)ccc12` [Example 4AC], the IC50 was less than 500 nM.
On the same count and under the same terms, to `COc1ncc(F)cc1S(=O)(=O)Nc1ccnc(-c2ccc3c(-c4ncc[nH]4)n[nH]c3c2F)c1C#N` [Example 29, N-(3-Cyano-2-(7-fluoro-3-(1H-imidazol-2-yl)-1H-indazol-6-yl)pyridin-4-yl)-5-fluoro-2-methoxypyridine-3-sulfonamide] belongs 2500 to 10000 nM; to `COc1ncc(C#N)cc1S(=O)(=O)Nc1cc(F)cc(-c2ccc3c(C(=O)NCCCO)n[nH]c3c2F)c1F` [Example 3DP, 6-(3-((5-cyano-2-methoxy-pyridine)-3-sulfonamido)-2,5-difluorophenyl)-7-fluoro-N-(3-hydroxypropyl)-1H-indazole-3-carboxamide], less than 500 nM.
On the same count and under the same terms, to `COc1nc(C)c(Cl)cc1S(=O)(=O)Nc1ccc(F)c(-c2ccc3c(C(=O)NCCCN(C)C)n[nH]c3c2F)c1F` [Example 3DN, 6-(3-((5-chloro-2-methoxy-6-methylpyridine)-3-sulfon-amido)-2,6-difluorophenyl)-N-(3-(dimethylamino)propyl)-7-fluoro-1H-indazole-3-carboxamide] belongs less than 500 nM; to `Cc1ncc(F)cc1S(=O)(=O)Nc1cccc(-c2ccc3c(-c4ncc[nH]4)n[nH]c3c2C)c1F` [Example 3Y, N-(3-(3-(1H-imidazol-2-yl)-7-methyl-1H-indazol-6-yl)-2-fluorophenyl)-5-fluoro-2-methylpyridine-3-sulfonamide], 500 to 2500 nM; to `COc1ncc(F)cc1S(=O)(=O)Nc1ccc(F)c(-c2ccc3c(C(=O)NCC(CO)CO)n[nH]c3c2F)c1F` [Example 3AT, 6-(2,6-difluoro-3-((5-fluoro-2-methoxypyridine)-3-sulfonamido)phenyl)-7-fluoro-N-(3-hydroxy-2-(hydroxymethyl)propyl)-1H-indazole-3-carboxamide], less than 500 nM.
As for `COc1ncc(CO)cc1S(=O)(=O)Nc1ccc(F)c(-c2ccc3c(-c4ncc[nH]4)n[nH]c3c2F)c1F` [Example 3DC, N-(2,4-difluoro-3-(7-fluoro-3-(1H-imidazol-2-yl)-1H-indazol-6-yl)phenyl)-5-(hydroxylmethyl)-2-methoxypyridine-3-sulfonamide], the IC50 is 500 to 2500 nM.
The same measure, in the same setting: to `COc1ncc(F)cc1S(=O)(=O)Nc1cccc(-c2ccc3c(C(=O)NC[C@H](O)CO)n[nH]c3c2F)c1F` [Example 3AY, 6-(2-fluoro-3-((5-fluoro-2-methoxypyridine)-3-sulfonamido)phenyl)-N-((S)-2,3-dihydroxypropyl)-7-fluoro-1H-indazole-3-carboxamide] belongs 500 to 2500 nM.
Still for that read-out and setting: to `O=C(Nc1cnn(CCO)c1)c1n[nH]c2c(F)c(-c3c(F)ccc(NS(=O)(=O)c4cc(F)cc5c4CCC5O)c3F)ccc12` (stereo not shown) [Example 4AJ] belongs less than 500 nM; to `COc1ncccc1S(=O)(=O)Nc1ccc(F)c(-c2ccc3c(C(N)=O)n[nH]c3c2F)c1F` [Example 3BJ, 6-(2,6-difluoro-3-((2-methoxypyridine)-3-sulfonamido)phenyl)-7-fluoro-1H-indazole-3-carboxamide], 500 to 2500 nM.
